pKd: −log10 of the molar value.
Experiments:
ABL1(E274K) = molecular target: T1, ABL1(E274K) (Homo sapiens, UniProt P00519, E255K); assay: Binding constant (Kd) measurement, phage-displayed kinase competition binding assay: ABL1(E274K); settings: competition with immobilized ATP site ligand
T1 construct: made in house; host or cells: T7 bacteriophage display
Excerpt: (§1) Binding Constant (Kd) Measurements for Small-Molecule-Kinase Interactions
(§2) The term “ND” represents non-determined values.

ABL1(DKIN) = molecular target: T2, ABL1(DKIN) (Homo sapiens, UniProt P00519); assay: Binding constant (Kd) measurement, phage-displayed kinase competition binding assay: ABL1(DKIN); settings: competition with immobilized ATP site ligand
T2 construct: column label 'AB L1(DKIN)'; fused on or other part: Fused to a T7 bacteriophage particle (phage display)
T2 sequence (P00519 242-493 limits assumed): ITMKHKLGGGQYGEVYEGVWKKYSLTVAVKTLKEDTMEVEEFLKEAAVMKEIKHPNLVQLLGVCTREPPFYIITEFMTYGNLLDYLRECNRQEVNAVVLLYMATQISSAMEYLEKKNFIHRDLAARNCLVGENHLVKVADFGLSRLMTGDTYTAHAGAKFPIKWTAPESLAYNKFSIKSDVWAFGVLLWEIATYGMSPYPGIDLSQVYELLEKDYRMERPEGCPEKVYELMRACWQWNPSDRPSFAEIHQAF
Excerpt: as §1, §2

T1 sequence (P00519 1-1149 isoform P00519-2 E274K): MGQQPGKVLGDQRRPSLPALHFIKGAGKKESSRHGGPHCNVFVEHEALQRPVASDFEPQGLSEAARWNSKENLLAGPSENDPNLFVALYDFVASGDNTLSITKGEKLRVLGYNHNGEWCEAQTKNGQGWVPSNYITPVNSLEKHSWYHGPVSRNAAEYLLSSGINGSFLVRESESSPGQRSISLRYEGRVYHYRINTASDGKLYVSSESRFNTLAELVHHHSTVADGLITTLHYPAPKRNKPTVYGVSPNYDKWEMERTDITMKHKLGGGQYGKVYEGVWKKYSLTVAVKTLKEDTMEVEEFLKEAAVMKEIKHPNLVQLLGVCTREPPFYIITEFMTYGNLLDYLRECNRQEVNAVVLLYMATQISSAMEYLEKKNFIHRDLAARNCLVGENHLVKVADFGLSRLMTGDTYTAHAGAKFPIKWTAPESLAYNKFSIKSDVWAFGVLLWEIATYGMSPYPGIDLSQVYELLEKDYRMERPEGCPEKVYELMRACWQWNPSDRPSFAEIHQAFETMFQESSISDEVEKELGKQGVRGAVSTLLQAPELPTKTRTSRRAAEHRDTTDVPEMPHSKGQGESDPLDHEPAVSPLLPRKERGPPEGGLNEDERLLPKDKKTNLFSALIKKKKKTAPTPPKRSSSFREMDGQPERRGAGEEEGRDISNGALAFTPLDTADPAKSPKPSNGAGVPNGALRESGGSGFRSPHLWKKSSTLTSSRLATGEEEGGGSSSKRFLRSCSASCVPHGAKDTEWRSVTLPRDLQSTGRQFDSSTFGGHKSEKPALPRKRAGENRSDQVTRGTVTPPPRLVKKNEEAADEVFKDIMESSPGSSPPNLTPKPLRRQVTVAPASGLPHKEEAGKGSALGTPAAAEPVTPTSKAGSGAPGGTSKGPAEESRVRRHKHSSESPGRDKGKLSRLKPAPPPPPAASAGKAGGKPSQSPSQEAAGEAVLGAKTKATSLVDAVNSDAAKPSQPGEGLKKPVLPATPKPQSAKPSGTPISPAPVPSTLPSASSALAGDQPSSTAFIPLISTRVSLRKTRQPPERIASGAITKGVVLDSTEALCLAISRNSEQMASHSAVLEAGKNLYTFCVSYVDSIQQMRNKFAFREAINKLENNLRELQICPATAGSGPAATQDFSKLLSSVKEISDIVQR

| SMILES | pKd (ABL1(E274K)) | pKd (ABL1(DKIN)) |
| --- | --- | --- |
| O=C(Cc1ccc(OCc2ccccc2)cc1)Nc1nc2cc(Cl)ccc2o1 [Compound B15] | < 5.00 |  |
| O=C(Cc1ccc(F)cc1)Nc1cc(C2CC2)nn1-c1ccccc1 [Compound E7] |  | < 5.00 |

Source: patent publication US20050148605A1, “Amide derivatives as ABL modulators” (Ambit Biosciences Corporation, priority 2003, published 2005)
